Tests used:
[1] = molecular target: Voltage-gated inwardly rectifying potassium channel KCNH2 (Homo sapiens, UniProt Q12809); experiment: Inhibitory activity against human Potassium channel HERG
Cytochrome P450 2C9 = Cytochrome P450 2C9 (Homo sapiens, UniProt P11712); experiment: Inhibitory activity against cytochrome P450 determined using human liver microsome upon 15 min incubation with probes substrates Tolbutamide (2C9); format: ADME, microsomes
Tryptase beta-1 = Tryptase beta-1 (Homo sapiens, UniProt Q15661); experiment: Inhibitory activity against human mast cell tryptase beta
Tryptase beta-1, sequence (Q15661 whole entry): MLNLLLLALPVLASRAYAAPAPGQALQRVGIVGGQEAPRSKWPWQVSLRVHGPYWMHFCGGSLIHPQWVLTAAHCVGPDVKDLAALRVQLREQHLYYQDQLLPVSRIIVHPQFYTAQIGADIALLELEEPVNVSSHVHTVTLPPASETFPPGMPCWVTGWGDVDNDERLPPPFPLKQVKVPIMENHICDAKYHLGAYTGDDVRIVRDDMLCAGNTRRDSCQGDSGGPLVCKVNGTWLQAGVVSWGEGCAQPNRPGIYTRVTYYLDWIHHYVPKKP

Cytochrome P450 2C19 = Cytochrome P450 2C19 (Homo sapiens, UniProt P33261); experiment: Inhibitory activity against cytochrome P450 determined using human liver microsome upon 15 min incubation with probes substrates s-mephenytoin (2C19); format: ADME, microsomes
Cytochrome P450 2C19, sequence (P33261 whole entry): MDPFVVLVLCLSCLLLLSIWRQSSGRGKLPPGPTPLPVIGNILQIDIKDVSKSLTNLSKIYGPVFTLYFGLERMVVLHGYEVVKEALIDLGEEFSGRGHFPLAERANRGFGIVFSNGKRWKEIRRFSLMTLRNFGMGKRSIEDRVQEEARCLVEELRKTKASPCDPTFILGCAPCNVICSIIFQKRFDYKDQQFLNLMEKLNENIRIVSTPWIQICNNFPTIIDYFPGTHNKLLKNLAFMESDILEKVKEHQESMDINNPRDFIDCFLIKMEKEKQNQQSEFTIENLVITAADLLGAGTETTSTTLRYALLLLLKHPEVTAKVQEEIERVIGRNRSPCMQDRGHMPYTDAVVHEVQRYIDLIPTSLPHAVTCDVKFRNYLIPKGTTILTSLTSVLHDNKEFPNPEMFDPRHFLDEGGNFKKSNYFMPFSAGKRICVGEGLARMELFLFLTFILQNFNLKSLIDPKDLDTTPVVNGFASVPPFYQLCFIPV

Voltage-gated inwardly rectifying potassium channel KCNH2, sequence (Q12809 whole entry): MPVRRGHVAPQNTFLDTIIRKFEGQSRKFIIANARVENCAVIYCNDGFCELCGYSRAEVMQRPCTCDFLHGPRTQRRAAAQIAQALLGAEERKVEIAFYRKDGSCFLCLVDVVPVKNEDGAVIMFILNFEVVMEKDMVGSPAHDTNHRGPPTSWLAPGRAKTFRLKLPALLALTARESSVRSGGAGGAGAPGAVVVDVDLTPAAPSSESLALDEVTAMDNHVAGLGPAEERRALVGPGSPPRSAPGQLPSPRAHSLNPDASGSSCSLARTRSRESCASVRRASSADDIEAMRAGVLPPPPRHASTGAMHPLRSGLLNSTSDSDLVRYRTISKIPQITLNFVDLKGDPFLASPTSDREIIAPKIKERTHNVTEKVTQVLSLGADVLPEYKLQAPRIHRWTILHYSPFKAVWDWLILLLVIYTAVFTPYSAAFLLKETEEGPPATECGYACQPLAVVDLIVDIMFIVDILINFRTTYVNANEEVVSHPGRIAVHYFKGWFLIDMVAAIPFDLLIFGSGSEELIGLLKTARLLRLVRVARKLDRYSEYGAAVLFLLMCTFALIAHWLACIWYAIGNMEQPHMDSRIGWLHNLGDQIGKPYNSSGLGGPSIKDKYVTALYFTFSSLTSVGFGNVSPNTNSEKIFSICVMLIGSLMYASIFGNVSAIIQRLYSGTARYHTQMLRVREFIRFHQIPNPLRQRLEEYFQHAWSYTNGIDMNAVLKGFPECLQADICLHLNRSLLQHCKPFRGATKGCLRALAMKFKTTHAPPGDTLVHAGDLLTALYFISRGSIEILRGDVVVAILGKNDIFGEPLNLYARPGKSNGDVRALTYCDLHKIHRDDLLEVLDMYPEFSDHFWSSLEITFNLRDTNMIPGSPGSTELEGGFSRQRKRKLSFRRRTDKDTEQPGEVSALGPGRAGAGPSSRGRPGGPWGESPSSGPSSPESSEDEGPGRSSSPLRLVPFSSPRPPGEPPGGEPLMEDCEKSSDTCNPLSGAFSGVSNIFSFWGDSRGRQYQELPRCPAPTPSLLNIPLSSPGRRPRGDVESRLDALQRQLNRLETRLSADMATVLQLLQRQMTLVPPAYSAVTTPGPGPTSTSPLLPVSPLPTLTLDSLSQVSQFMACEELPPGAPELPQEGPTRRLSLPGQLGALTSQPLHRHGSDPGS
Cytochrome P450 2C9, sequence (P11712 whole entry): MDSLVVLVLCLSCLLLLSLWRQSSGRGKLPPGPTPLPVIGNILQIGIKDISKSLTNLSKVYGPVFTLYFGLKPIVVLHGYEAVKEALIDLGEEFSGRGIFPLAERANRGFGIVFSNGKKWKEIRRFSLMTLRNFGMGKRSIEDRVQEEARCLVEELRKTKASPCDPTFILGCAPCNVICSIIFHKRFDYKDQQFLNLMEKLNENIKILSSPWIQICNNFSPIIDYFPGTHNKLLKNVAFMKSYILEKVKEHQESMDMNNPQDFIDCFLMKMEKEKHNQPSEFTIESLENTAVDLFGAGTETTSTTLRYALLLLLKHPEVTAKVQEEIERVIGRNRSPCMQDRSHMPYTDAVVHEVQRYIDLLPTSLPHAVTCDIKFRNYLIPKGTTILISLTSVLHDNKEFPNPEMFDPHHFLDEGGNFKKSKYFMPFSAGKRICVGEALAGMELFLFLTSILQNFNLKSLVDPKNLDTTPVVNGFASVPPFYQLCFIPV

## NCc1ccc(F)c(C2CCN(C(=O)c3cccc(-c4nc(-c5cccs5)no4)c3)CC2)c1
[1]
  IC50: 800 nM
Cytochrome P450 2C9
  IC50: 480 nM
Tryptase beta-1
  Ki: 4.3 nM
Cytochrome P450 2C19
  IC50: 2190 nM

## NCc1ccc(F)c(C2CCN(C(=O)c3cc(C(=O)O)cc(-c4nc(-c5cccs5)no4)c3)CC2)c1
[1]
  IC50: 76800 nM
Cytochrome P450 2C9
  IC50: > 50000 nM
Tryptase beta-1
  Ki: 88 nM
Cytochrome P450 2C19
  IC50: > 50000 nM

## NCc1ccc(F)c(C2CCN(C(=O)c3cc(C(N)=O)cc(-c4nc(-c5cccs5)no4)c3)CC2)c1
Tryptase beta-1
  Ki: 1.3 nM

## CCOC(=O)c1cc(C(=O)N2CCC(c3cc(CN)ccc3F)CC2)cc(-c2nc(-c3cccs3)no2)c1
Tryptase beta-1
  Ki: 59 nM

## NCc1cccc(C2CCN(C(=O)c3cc(C(N)=O)cc(-c4nc(-c5cccs5)no4)c3)CC2)c1
Tryptase beta-1
  Ki: 1.5 nM

Reference: ChEMBL document CHEMBL1138723, “Design of bivalent ligands using hydrogen bond linkers: synthesis and evaluation of inhibitors for human beta-tryptase” (Bioorg Med Chem Lett, 2004)
